These results are taken from paper PMC5309220, “Screening for Small Molecule Inhibitors of Statin-Induced APP C-terminal Toxic Fragment Production” (Frontiers in Pharmacology, 2017).

“Also recorded” adds a separate entry of the source. Structures can show the parent of a compound that is named as a salt. Where two headings read alike, the source gives them in different places.

Series [1] has as its system cerivastatin-induced APPΔC31 in CHO-7W cells. The series can be described thus: APPΔC31 AlphaLISA dose-response, cerivastatin-induced. Format: cell-based, Chinese hamster. The note with it: 24 h; for IC50: Cricetulus griseus. As for the experimental part:
The APPΔC31 AlphaLISA assay (Figures 2C–E) was run directly in the plate with the cell lysate as described above in “AlphaLISA to detect APPΔC31.” APPΔC31 levels were measured using the Envision plate reader and data were normalized to DMSO (100% APPΔC31 production) and Q-VD-OPh (MP Biomedicals) pan-caspase inhibitor at 30 μM (0%); these controls were present on each plate. In addition, some compounds of interest were further analyzed in a dose-response curve to determine IC50 values.
The broad-spectrum pan-caspase inhibitor Q-VD-OPh served as the positive control.
Lysates were prepared and APPΔC31 determined by ELISA. (B) CHO-7W cells were treated with 10 μM cerivastatin plus increasing doses of caspase and MEK inhibitors for 24 h. Lysates were prepared and APPΔC31 determined by AlphaLISA. Click here for additional data file.
On the technique in general: Alpha assays give light when donor and acceptor beads are brought close together.

For series [2], the system named is cerivastatin-induced APPΔC31 production in CHO-7W cells. The experiment in a line: APPΔC31 ELISA validation assay, cerivastatin-induced. The class given is cell-based, Chinese hamster. The note with it: 10 μM cerivastatin, 24 h; for APPΔC31 Inh. (mean %): CHO-7W cells, test concentration not given. As for the experimental part:
The APPΔC31 ELISA developed in partnership with Enzo Life Sciences (ADI-900-227) follows a standard sandwich ELISA design wherein a monoclonal N-terminal APP-specific antibody is used to coat the wells of the microtiter plate (capture antibody) and the anti-APPΔC31 cleavage site-specific polyclonal antibody serves as the detection antibody. An HRP-conjugated secondary antibody is then added and a colorimetric signal generated by enzymatic conversion of the tetramethylbenzidine (TMB) substrate. Protein levels were first determined using a colorimetric coomassie assay (Coomassie Plus, Thermo).
A subset of hits from our HTS was validated in a secondary assay. […] Thapsigargin also acts as a sarco/endoplasmic reticulum calcium ATPase (SERCA) inhibitor. Therefore, another SERCA inhibitor, 2,5-Di-tert-butylhydroquinone, was also added to the testing. In this secondary assay, CHO-7W cells were cultured as described above and plated into 24-well dishes at ∼200K/well. […] These hits were selected for their potency in primary screen, their structural features, their known activities, and availability of compound for additional testing. There were cerivastatin-only (negative control), + QVD-OPh (positive control), and for viability, vehicle-only (negative) controls. Cells were harvested by removing the media to a tube, adding […] trypsin to detach cells then neutralizing with media. […] Cells were centrifuged at 5000 rpm (2300 × g) for 5 min. Cell pellets were frozen until use. Forty μL cold RIPA buffer plus complete protease inhibitors (Roche) was added to each pellet and the pellets were reconstituted by pipetting up and down, incubating on ice for 30 min, vortexing, and centrifugation as above. Cell lysate supernatants were then assayed by APPΔC31 ELISA as described above. For most compounds, multiple/repeat studies were performed and two wells used for each condition. Statistical comparison was performed using one-way ANOVA for multiple comparisons, with a Dunnett post hoc test to compare each condition to the control. Further dose-response studies were performed on select compounds.
(In an ELISA, binding on a coated surface is turned into a signal by an enzyme label.)

Series [3] concerns cerivastatin-induced APPΔC31 in CHO-7W cells. The experiment in a line: APPΔC31 immunoblot of CHO-7W cell lysates. Format: cell-based, Chinese hamster. The note with it: compound at 30 μM, 10 μM cerivastatin, 24 h. As for the experimental part: For immunoprecipitation, approximately 300 μg cell lysate supernatants were brought to 250 μL with cold RIPA + PI buffer in microfuge tubes. One μL of 6E10 APP antibody (Covance) was added and the mixture was rotated overnight in a cold room. The next day, 25 μL of protein A/G beads (Santa Cruz Biotech) were added and the samples were rotated for 1.5 h in the cold room. The beads were then centrifuged down and washed four times with cold PBS. Forty μL 1x LDS sample buffer + DTT was added to the pellets, which were heated to 70°C for 10 min, vortexed and centrifuged. Supernatants were loaded onto Nupage 4–12% Bis-Tris gels (Life Technologies) for electrophoresis and were then transferred to 0.2 μm PVDF membrane for immunoblotting with the anti-APPΔC31 antibody.
(A) CHO-7W cells were treated with 10 μM cerivastatin (CS) along with varying concentrations of Q-VD-OPh (QVD) for 24 h. Cell lysates were prepared and immunoprecipitated with anti-APP (6E10) overnight at 4°C and then incubation with Protein A/G beads (Santa Cruz Biotech). The resulting pellets were incubated, electrophoresed using Nupage 4–12% Bis-Tris gels (Life Technologies) and the 0.2 μm PVDF membrane probed with anti-APPΔC31. (B) CHO-7W cells were treated with increasing concentrations of CS or 10 μM CS together with increasing concentrations of 3′-fluorobenzylspiperone maleate (3′-F-Sp) or 30 μM QVD for 24 h. […]
(Immunoblotting shows a protein as a band on a membrane.)

In the next series the test system is sAPPα in CHO-7W cultures. The series can be described thus: sAPPα ELISA in cell media. The class given is cell-based, Chinese hamster. The note with it: QVD, Sp, 3′F-Sp at 10, 30, and 30 mM, respectively (so in the source), with 10 μM cerivastatin, 24 h, vs CS alone, n = 2. As for the experimental part:
(§1) In an additional study (Supplementary Figure S5A), measurement of the α secretase fragment of full length (FL) APP – soluble APP alpha (sAPPα) – was performed using cell media by ELISA (IBL). Furthermore, in two studies (Supplementary Figures S5B,C), total protein levels in CHO-7W cell lysates were determined by Coomassie Plus protein assay (Pierce).
(§2) Supplementary file Data_Sheet_1.docx: FIGURE S5 Effect of lead compounds on protein concentration and sAPPα. […] (B) Total protein from lysates of CHO-7W cells treated with either 30 μM QVD or 10 μM Sp alone for 24 h was similar to the vehicle control (n = 1). (C) Total protein from CHO-7W lysates treated with 10 μM CS alone or in combination with QVD, Sp, or 3′F-Sp at the concentrations shown increased (n = 1). Statistical analysis was performed using one-way ANOVA and Dunnett post-test for comparison to the 10 μM CS control (^∗∗p < 0.001, ^∗∗∗p < 0.0001). Click here for additional data file.

For the next series, the system named is CHO-7W cells. The series can be described thus: Total protein in CHO-7W cell lysates (Coomassie Plus). Format: cell-based, Chinese hamster. The note with it: n = 1; for effect on total protein concentration with cerivastatin (in words): QVD, spiperone, 3′fluorobenzylspiperone at 30, 10, and 10 μM, respectively, with 10 μM cerivastatin. As for the experimental part:
as §1, §2

The nature of series [4]: PAMPA / immobilized artificial membrane (IAM.PC.DD2) chromatography. Format: in vitro ADME.
Description: Immobilized artificial membrane (IAM) chromatography such as PAMPA (parallel artificial membrane permeability assay) is used to predict a compound’s passive diffusion through membranes and may predict blood-brain barrier (BBB) penetrance.
To minimize variability between PAMPA assays for different compounds, the well-characterized, reliable IAM.PC.DD2 Regis Technologies analytical columns were used. In these 10 cm × 4.6 mm columns, the phospholipid is bonded on 10 μm, 300 Å, spherical aminopropyl silica and end capped with C10 and C3 amides.
Columns were connected to an Agilent high performance liquid chromatography system. […] The mobile phase was a mixture of water and methanol and a gradient was used for the elution of the compounds. The detector was set at 250 and 280 nm. After a compound was eluted, the retention time and void volume times were obtained from the chromatogram.
The IAM capacity factor (KIAM) was calculated using the equation: KIAM=tr−t0/t0 ; where tr is the
retention time of a compounds and t0 is the void volume time of the column. […] To predict the likelihood a compound would be BBB penetrant, we used the correlation described by [Yoon et al. (2006)]:
• (I) If KIAM/MW^4x10^10 > 0.85 the BBB penetration is predicted to be high • (II) If KIAM/MW^4x10^10 < 0.85 the BBB penetration is predicted to be low
Series [5] relates to cerivastatin-induced APPΔC31 in I5 mouse hippocampal slice cultures. The experiment in a line: Ex vivo organotypic hippocampal slice cultures, APPΔC31 ELISA. The note with it: 72 h, read-out: inhibition of APPΔC31 production.
Description: I5 mice originally purchased from Jackson labs (JAX B6.Cg-Tg(PDGFB-APP)5Lms/J) were bred and maintained in the Buck Institute vivarium facility, and used under the guidelines of an approved institutional IACUC protocol. P5–7 day mice were sacrificed using CO2 gas and cervical dislocation according to established IACUC protocols. Brains were removed, and under sterile conditions, hippocampi were dissected out on ice in Hybernate media + 1:400 Glutamax, 1:100 Pen/Strep and 1:50 B27 supplement (all Life Technologies). Hippocampi were laid parallel on a tissue chopper (McIlwain) in a small amount of media and sliced at 400 μm thick. Millicell-CM 6-well cell culture inserts (Millipore, 0.4 μm) were prehydrated by pipetting 750 μL culture media under each well and placing in a 35°C, 5% CO2 incubator for at least 30 min. Culture media: 100 mL MEM-HEPES, 50 mL HBSS, 50 mL HI horse serum, 1 mL 100x Pen/Strep (all Gibco), 1.3 g (6.5 mg/mL) glucose, and 2 mL 200 μM (2 mM) Glutamax, sterile filtered. […] Protein was quantitated for each sample using Coomassie Plus reagent (Thermo). […]
Tissue was harvested and lysates analyzed for APPΔC31 by ELISA. Lysates were protein normalized and expressed as a % of control.
For another series, the target named is caspase 8. The note with it: potency stated for the inhibitor, no reference given; cited from earlier work.
In series [6] the test system is APPΔC31 production in CHO-7W cells. The experiment in a line: Statin induction of APPΔC31, ELISA. Format: cell-based, Chinese hamster. The note with it: 24 h. As for the experimental part:
An HRP-conjugated secondary antibody is then added and a colorimetric signal generated by enzymatic conversion of the tetramethylbenzidine (TMB) substrate. Protein levels were first determined using a colorimetric coomassie assay (Coomassie Plus, Thermo).
APPΔC31 was determined in cell lysates by ELISA.

A further series can be described thus: in vitro. The note with it: Chinese hamster.
Where [7] appears, read: AlphaLISA dose-response (Figure 5C), cerivastatin-stimulated.

In general, IC50 refers to the concentration needed to halve the response being measured. Broadly, the inhibition is the percentage by which the read-out fell short of the control. Consider `O=C(CCCN1CCC2(CC1)C(=O)N(Cc1cccc(F)c1)CN2c1ccccc1)c1ccc(F)cc1` [3′Fluorobenzylspiperone maleate, 3′-fluorobenzylspiperone maleate], for which the “% Min (APPΔC31 dose-response)” value in series [1] (setting [7]) is listed as 25%. Also, the IC50 in series [1] ((A) AlphaLISA, cerivastatin-induced, read-out: IC50 (A), APPΔC31 inhibition) was found to be 2.2 µM. For the same compound, the “APPΔC31 Inh. (mean %)” value in series [2] was found to be 78%. Further, the “effect on CS-induced APPΔC31 by immunoblot (in words)” value in [3] is “decreased”. The “effect on sAPPα (in words)” value with sAPPα in CHO-7W cultures was “increased sAPPα”. In the series on CHO-7W cells, the “effect on total protein concentration with cerivastatin (in words)” value is listed as “increased total protein concentration”. For the same compound, in series [4] (IAM.PC.DD2 column, water/methanol gradient), the “KIAM (IAM capacity factor)” value was found to be 3.2. Besides, the “KIAM/MW^4 x 10^10” value in series [4] (IAM.PC.DD2 column, correlation of Yoon et al. (2006)) was 0.50. For the same compound, the “BBB Penetration Prediction” value in series [4] (from KIAM/MW^4 x 10^10, cut-off 0.85) is listed as “low (If KIAM/MW^4x10^10 < 0.85 the BBB penetration is predicted to be low)”. The inhibition at 30 µM in series [5] was roughly 82%.

As for `FC(F)(F)c1cccc(-c2csc(C3COc4ccccc4O3)n2)c1` (centres unmarked) [Caspase Inhibitor X], the “inhibition of cerivastatin-induced APPΔC31 (in words)” value in series [1] (highest concentration tested (30 μM), 10 μM cerivastatin, AlphaLISA) was “somewhat effective”. The half-maximal inhibitory concentration (IC50) at caspase 8 was 2.7 µM.

As usually defined, the viability is a read-out of living cells in per cent, often relative to untreated cells. High values mean less harm to the cells, low ones more harm to the cells. As for `COCc1c(C(C)C)nc(C(C)C)c(/C=C/[C@@H](O)C[C@@H](O)CC(=O)O)c1-c1ccc(F)cc1` [Cerivastatin], in [6] (statins at 1, 5 and 10 μM), the “induction of APPΔC31 (in words)” value was “most effective; also recorded: did so at 1, 5, and 10 μM”. The compound further displayed a viability at 24 h, 10 µM in the series “in vitro” of 15%.

On to `CC(C)C(NC(=O)c1ccc2ccccc2n1)C(=O)NC(CC(=O)O)C(=O)COc1c(F)cccc1F` (centres unmarked) [QVD-OPh, Q-VD-OPh], for which the “% Min (APPΔC31 dose-response)” value in [1] (setting [7]) amounted to 0%. Besides, the IC50 was determined as 7.5 µM in series [1] (AlphaLISA dose-response (Figure 5C), cerivastatin-stimulated, read-out: IC50, APPΔC31 inhibition) and 7.5 µM in [2] (Cricetulus griseus, ELISA, CHO-7W, read-out: IC50 (E), APPΔC31 inhibition). In addition, the “APPΔC31 Inh. (mean %)” value in series [2] was determined as 95%. In addition, in series [3], the “effect on CS-induced APPΔC31 by immunoblot (in words)” value is recorded as “eliminated the cerivastatin-induced APPΔC31 increase”. In addition, the “effect on sAPPα (in words)” value with sAPPα in CHO-7W cultures is on record as “increased sAPPα”. The “effect on protein concentration in lysates, compound alone (in words)” value in the series on CHO-7W cells (QVD alone at 30 μM, spiperone alone at 10 μM, 24 h, vs vehicle) is “did not lower protein concentration”. Besides, the “effect on total protein concentration with cerivastatin (in words)” value in the series on CHO-7W cells is on record as “increased total protein concentration”. In addition, the “effect on simvastatin-induced APPΔC31 increase (in words)” value in [6] (30 μM inhibitor plus 5 μM simvastatin) was “prevented 5 μM simvastatin-induced APPΔC31 increases”.
